Experimental findings from PMC3139667, “A Screen against Leishmania Intracellular Amastigotes: Comparison to a Promastigote Screen and Identification of a Host Cell-Specific Hit” (PLoS Neglected Tropical Diseases, 2011) are described below.

The structures appear in SMILES notation. Entries after “also recorded” stand apart in the source; their conditions may differ. Structures can show the parent of a compound that is named as a salt. Where two headings read alike, the source gives them in different places.

One data set has as its system THP-1. As to the kind of experiment: Host cell toxicity: THP-1 host nuclei counts in the image-based assay. The note with it: for GI50: read-out: GI50 THP-1; for Selectivity: ratio between parasite GI50 and THP-1 GI50. The method, then: (§1) Sterile, black, 96-well, clear bottom plates (Greiner Bio-One) were seeded with exponentially growing THP-1 (5×10^5cells/ml). THP-1 were treated with 0.1 µM phorbol myristate acetate (PMA, Sigma) at 37°C for 48 h to achieve differentiation into adherent, non-dividing macrophages. Maturation of THP-1 cells towards monocyte-macrophage like cells is essential to avoid parasitized cells being overgrown by replicating cells. After activation by PMA, cells were washed and incubated with complete RPMI medium containing stationary phase L. donovani promastigotes at a macrophage/promastigote ratio of 1/15. After 4 h incubation at 37°C, non-internalized promastigotes were removed by 2–3 successive washes with RPMI containing 5% FBS and 5% horse serum. Test compounds (10 µM), positive control (2 µM amphotericin B) or negative control (1% DMSO) were then added to the cultures using a Biomek FXp liquid handler (Beckman Coulter). Cultures were incubated at 37°C for 72 h. Cells were then washed with phosphate-buffered saline (PBS), fixed for 30 minutes with 4% formaldehyde, rinsed again with PBS, stained for 2 h with 4′,6′-diamidino-2-phenylindole (DAPI 300 nM) and finally washed with PBS. […] Images were acquired with an INCell Analyzer 1000 automated epi-fluorescent microscope (G.E. Healthcare). The excitation and emission filters used to detect DAPI were 350/50 nm and 460/40 nm respectively. Eight image fields were acquired per well with a 20X objective. The proprietary INCell Developer Toolbox 1.7 software was used for image analysis. Segmentation parameters were set to identify host nuclei with a minimum area of 250 µm^2 and parasite kinetoplast with an average area of 1 µm^2. The intensity of parasite nucleus was too low to be detected with a 20X objective. A border, representing the boundary of the cell, was drawn around the nucleus (total area between 700 and 2000 µm^2). Only parasites found within this area were included in the calculation to eliminate extracellular parasites. False positive parasite detection in the nucleus was also excluded from the calculation. Host cell nuclei and parasite kinetoplasts were counted and the ratio of parasites DNA to host nuclei was selected as the measurement output. Percentage inhibition of parasite growth was calculated as [1-(P/hcx-P/hc^+)/(P/hc^−-P/hc^+)]*100 where P/hcx, P/hc^+ and P/hc^− are parasite per host cell ratio for every well, positive control (amphotericin B) and negative control (DMSO) respectively. Calculation of Z' factor and GI50 curve fitting were carried out as described above.

For data set [1], the system named is L. donovani intracellular amastigotes. Put plainly: Intracellular amastigote high-throughput image-based assay in infected THP-1 macrophages. The format is cell-based, Leishmania donovani. The note with it: for GI50: L. donovani in THP-1, 72 h, parasites per host cell, read-out: GI50 Intracellular amastigote; for Primary screen against intracellular amastigotes, hit selection: 10 µM, duplicates, hit = 60% parasite growth inhibition and not more than 20% reduction in THP-1 numbers. The method, then:
as §1

Data set [2] concerns L. donovani promastigotes. Put plainly: Promastigote high-throughput ATP-bioluminescence assay. The format is cell-based, Leishmania donovani. The note with it: for GI50: 72 h at 27°C, CellTiter-Glo, read-out: GI50 Promastigote. The protocol:
L. donovani promastigotes from an exponentially growing culture were diluted to 10^6/ml in RPMI containing 10% FBS and 10% BHT. The diluted culture (99 µl/well) was dispensed in sterile 96-well flat white opaque assay plates (Greiner Bio-One) using a WellMate multichannel dispenser (Matrix). 1 µl of 1 mM test compound dissolved in DMSO was added to the plates for a final concentration of 10 µM compound and 1% DMSO. Amphotericin B was added as a positive control (final concentration 2 µM, 1% DMSO) and as a negative control, 1 µl DMSO was added (1% final concentration). Compounds and controls were added to the assay plate with the robotic dispenser Biomek FXp liquid handler (Beckman Coulter). Promastigotes were incubated with the compounds for 72 h at 27°C. The parasites were then lysed by adding 50 µl of CellTiter-Glo (Promega) and placed on an orbital shaker for 5 min at room temperature. After lysis, the resulting ATP-bioluminescence was measured using the Analyst HT plate reader (Molecular Devices). Percentage inhibition of parasite growth was calculated for each well as [1-(RLUx-RLU^+)/(RLU^--RLU^+)]*100 where RLUx, RLU^+ and RLU^- are respectively the Relative Light Units for each well, positive (amphotericin B) and negative (DMSO) controls. A screening window coefficient, denoted Z' factor, was used to evaluate the performance of the assay. The Z' factor, calculated as 1-(3σc++3σc−)/(µc+−µc−) where σc+, σc−, µc+ and µc− are respectively the standard deviation and mean values of positive and negative controls, is reflective of the assay signal dynamic range and the data variation associated with signal measurement. […] GI50 curve fitting was carried out using GraphPad Prism 4 Software (GraphPad Software Inc., San Diego, CA).

The test system of data set [3] is L. donovani axenic amastigotes. As to the kind of experiment: Dose response study against axenic amastigotes (CellTiter-Glo). The format is cell-based, Leishmania donovani. The note with it: for GI50: 72 h at 37°C, CellTiter-Glo, read-out: GI50 Axenic amastigote. The protocol: L. donovani axenic amastigotes (5×10^5 cells/ml in axenic amastigote media) were dispensed in sterile 96-well flat white opaque assay plates (Greiner Bio-One) using a WellMate multichannel dispenser (Matrix). […] 1% DMSO and amphotericin B (2 µM, 1% DMSO final concentration) were added as negative and positive controls respectively. Axenic amastigotes were incubated with the compounds for 72 h at 37°C with 5% CO2. Parasite viability was then measured using CellTiter-Glo as described above.

[4] abbreviates: Leishmania donovani, THP-1, 72 h.
The mark [5] stands for this setting: ratio between promastigote GI50 and intracellular amastigote GI50, >2 more active against intracellular amastigote, <0.4 more active against promastigotes.
Where [6] appears, read: PMA-differentiated infected THP-1, 72 h, host nuclei count.

Take `COC(=O)C1=C(C)NC(C)=C(C(=O)OCC(C)C)C1c1ccccc1[N+](=O)[O-]` (centres unmarked) [Nisoldipine]: the GI50 in the data set on THP-1 (Homo sapiens, THP-1, 72 h) is more than 16.5 µM; in data set [1] (setting [4]), 32.2 µM; in data set [2] (Leishmania donovani) it was 9.85 µM; in data set [3] (Leishmania donovani) it was 13.9 µM. The Selectivity in the data set on THP-1 is 1.67. In data set [1] (setting [5]), the Specificity stood at 0.30.

As to `C=C1C(=O)O[C@H]2[C@H]1CC/C(C)=C/CC[C@@]1(C)O[C@@H]21` [Parthenolide], the GI50 in the data set on THP-1 (Homo sapiens, THP-1, 72 h) was more than 16.5 µM; in data set [1] (setting [4]), more than 50 µM; in data set [2] (Leishmania donovani), 15.5 µM; in data set [3] (Leishmania donovani), 4.35 µM. Further, the Selectivity in the data set with THP-1 was found to be 1.06. Besides, the Specificity in data set [1] (setting [5]) is 0.31.

`N=C(N)c1ccc(OCCCCCOc2ccc(C(=N)N)cc2)cc1` [Pentamidine Isethionate]: the 50% growth inhibitory concentration (GI50) in the data set on THP-1 (Homo sapiens, THP-1, 72 h) was more than 50 µM; in data set [1] (setting [4]), 9.55 µM; in data set [2] (Leishmania donovani), 1.69 µM; in data set [3] (Leishmania donovani), 1.64 µM. Moreover, in the data set with THP-1, the Selectivity turned out to be 29.49. Moreover, the “Primary screen against intracellular amastigotes, hit selection” value in data set [1] is “active”. The Specificity in data set [1] (setting [5]) was 0.17.

As for `COc1cc2nc(N3CCN(C(=O)c4ccco4)CC3)nc(N)c2cc1OC.Cl` [Prazocin Hydrochloride], the Selectivity in the data set with THP-1 is reported as 3.46. Besides, the concentration for 50% growth inhibition (GI50) in the data set with THP-1 (setting [6]) was 23.3 µM; in data set [1], 6.73 µM; in data set [2], 16.7 µM; in data set [3] it was more than 50 µM. In data set [1], this molecule returned a Specificity of 2.48.

With `CN1CCc2cccc3c2[C@H]1Cc1ccc(O)c(O)c1-3` [R(-)-Apomorphine], the Selectivity with THP-1 was 6.1. In addition, the GI50 was more than 16.5 µM with THP-1 (setting [6]), 2.7 µM in data set [1], 38.1 µM in data set [2] and 5.2 µM in data set [3]. Moreover, in data set [1], the Specificity came out at 14.12.

For `CC[C@@H](C(=O)[C@@H](C)[C@@H](O)[C@H](C)[C@@H]1O[C@@H]([C@@H](CC)C(=O)O)CC[C@@H]1C)[C@H]1O[C@]2(C=C[C@@H](O)[C@]3(CC[C@@](C)([C@H]4CC[C@](O)(CC)[C@H](C)O4)O3)O2)[C@H](C)C[C@@H]1C` [Salinomycin], the GI50 in the data set on THP-1 (Homo sapiens, THP-1, 72 h) turned out to be 16.1 µM; in data set [1] (setting [4]), 0.92 µM; in data set [2] (Leishmania donovani) it was 2.71 µM; in data set [3] (Leishmania donovani) it was 0.06 µM. In addition, the Selectivity in the data set with THP-1 was 17.30. In data set [1], this molecule registered a Specificity of 2.92.

On to `CC/C(=C(\c1ccccc1)c1ccc(OCCN(C)C)cc1)c1ccccc1` [Tamoxifen Citrate], for which the GI50 was more than 16.5 µM in the data set with THP-1 (Homo sapiens, THP-1, 72 h); 20.8 µM in data set [1] (setting [4]); 10.2 µM in data set [2] (Leishmania donovani); more than 50 µM in data set [3] (Leishmania donovani). In the data set with THP-1, the Selectivity was found to be 1.61. In addition, the “Primary screen against intracellular amastigotes, hit selection” value in data set [1] is listed as “active”. In data set [1] (setting [5]), the Specificity is recorded as 0.49.

Consider `CCOc1ccccc1OCCN[C@H](C)Cc1ccc(OC)c(S(N)(=O)=O)c1` [Tamsulosin], for which the GI50 with THP-1 (Homo sapiens, THP-1, 72 h) was 28 µM; in data set [1] (setting [4]), 6.3 µM; in data set [2] (Leishmania donovani) it was 20 µM; in data set [3] (Leishmania donovani) it was more than 50 µM. Also, the Selectivity in the data set on THP-1 is reported as 4.43. In addition, the Specificity in data set [1] (setting [5]) was 3.17.

As to `CN(C)C(=S)SSC(=S)N(C)C` [Thiram], the GI50 was 1.58 µM in the data set with THP-1 (Homo sapiens, THP-1, 72 h); 10.4 µM in data set [1] (setting [4]); 4.62 µM in data set [2] (Leishmania donovani); 5.42 µM in data set [3] (Leishmania donovani). In the data set with THP-1, the Selectivity was found to be 0.34. For the same molecule, in data set [1] (setting [5]), the Specificity is listed as 0.44.

For `Cc1ccc2c(Cl)cc(Cl)c(O)c2n1` [chlorquinaldol], the GI50 came out at 39.3 µM in the data set on THP-1 (Homo sapiens, THP-1, 72 h); 5.5 µM in data set [1] (setting [4]); 6.3 µM in data set [2] (Leishmania donovani); 1.72 µM in data set [3] (Leishmania donovani). For the same molecule, in the data set with THP-1, the Selectivity was determined as 7.14. Moreover, the Specificity in data set [1] (setting [5]) worked out at 1.14.

On to `C=CCN1CC[C@]23c4c5ccc(O)c4O[C@H]2C(=O)CC[C@@]3(O)[C@H]1C5` [naloxone], for which the “Toxicity to the host macrophage (in words)” value with THP-1 (dose response, up to 50 µM) is on record as “not toxic”. Also, in data set [1], the “Primary screen against intracellular amastigotes, hit selection” value is “not selected as a hit”. For the same molecule, the “Activity against intracellular amastigotes (in words)” value in data set [1] (dose response, up to 50 µM) is “inactive; also recorded: did not show any activity”. For the same molecule, in data set [2] (10 µM, hit = 60% parasite growth inhibition), the “Primary screen against promastigotes, hit selection” value is “not selected as a hit”. Besides, in data set [2] (dose response, up to 50 µM), the “Activity against promastigotes (in words)” value was “inactive”. In data set [3] (dose response, up to 50 µM), the “Activity against axenic amastigotes (in words)” value was “inactive”.
